Measurements from patent US20260355239A1, “COMBINATION OF A T CELL THERAPY AND CONTINUOUS OR INTERMITTENT DGK INHIBITOR DOSING” (Juno Therapeutics, Inc., priority 2022, published 2026).

Experiments:
CAR-expressing T cells = assay: Chronic stimulation assay, concurrent treatment: tumor cell numbers, spheroid volume and cytokines during re-challenge of CAR-expressing T cells (FIGS. 5A-6B); type: cell-based, human
From the text: FIGS. 5A-5B and 6A-6B show cytolytic activity and cytokine production during re-challenge of CAR-expressing T cells chronically stimulated in the presence of Compound 17 (concurrent treatment).
These observations were made using a chronic stimulation assay to render T cells (e.g. CAR T cells) hypofunctional (e.g. reduced cytolysis and IL-2 secretion). Using this model, engineered T cells (e.g. CAR T cells or eTCR T cells) were examined to assess impact of DGKi, such as Compound 17, on function of the engineered T cells when present during (concurrent) or following (rescue) exposure to conditions leading to a hypofunctional, exhaustive state.

[1] = tested on: CD19-antigen expressing target cells (K562.CD19, Granta-519, Raji); assay: CAR-T cell cytolytic function in co-culture; type: cell-based, human; conditions: 2.5:1 effector:target, compound present during co-culture
From the text: T cell compositions containing T cells expressing an exemplary anti-CD19 CAR were generated from leukapheresis samples from two healthy human adult donors by a process that included immunoaffinity-based selection of T cells by separately selecting CD4+ and CD8+ cells from the samples, resulting in two compositions enriched for CD4+ and CD8+ cells, respectively, per donor. Cells of the enriched CD4+ and CD8+ compositions were separately activated with anti-CD3/anti-CD28 beads and subjected to lentiviral transduction with a vector encoding an anti-CD19 CAR. […]
Prior to use, the cryopreserved CD4+ and CD8+ CAR-engineered cell compositions were thawed and combined at approximately a 1:1 CD4:CD8 ratio for each donor to prepare a combined CD4+ CAR+ and CD8+ CAR+ T cell composition. The effects of treatment with Compound 17 at various concentrations (0.1 nM, 1 nM, 10 nM, 100 nM, or 1000 nM) added at day 0 during stimulation of the combined CAR-T cell composition with a plate-bound CAR-specific anti-idiotypic antibody (see, e.g., WO2018/023100) or during co-culture with CD19-expressing cells was then assessed.
The cytolytic function of T cells treated with Compound 17 was assessed following co-culture of the combined CAR-T cell composition with various CD19-expressing lymphoma cells at a 2.5:1 effector:target ratio in the presence of Compound 17. […]

anti-CD19 CAR-T cells = assay: Phenotype of chronically stimulated CAR-T cells concurrently treated; type: cell-based, human; conditions: concurrent treatment 0.1-1000 nM, chronic stimulation 7 days
From the text: T cell compositions containing T cells expressing an exemplary anti-CD19 CAR were generated from leukapheresis samples from two healthy human adult donors by a process that included immunoaffinity-based selection of T cells by separately selecting CD4+ and CD8+ cells from the samples, resulting in two compositions enriched for CD4+ and CD8+ cells, respectively, per donor. Cells of the enriched CD4+ and CD8+ compositions were separately activated with anti-CD3/anti-CD28 beads and subjected to lentiviral transduction with a vector encoding an anti-CD19 CAR. The anti-CD19 CAR contained an anti-CD19 single-chain variable fragment (scFv) derived from a murine antibody (variable region derived from FMC63), an immunoglobulin-derived spacer, a transmembrane domain derived from CD28, a costimulatory region derived from 4-1BB, and a CD3-zeta intracellular signaling domain. The expression construct in the viral vector further contained sequences encoding a surrogate surface marker for CAR expression, which was separated from the CAR-encoding sequence by a T2A ribosome skip sequence. Transduced CD4+ or CD8+ T cell populations then were separately incubated in the presence of stimulating reagents for cell expansion. Expanded CD4+ and CD8+ cells were formulated and cryopreserved separately and stored. […]

[2] = tested on: CD19-expressing lymphoma cells (K562.CD19, Granta-519, Raji); assay: Cytolytic activity of chronically stimulated, concurrently treated CAR-T cells, 2D co-culture; type: cell-based, human; conditions: concurrent treatment during chronic stimulation; 2D re-challenge without compound
Procedure: (§1) To simulate conditions of chronic stimulation, approximately 20,000 anti-CD19 CAR-expressing T cells of a combined CAR-T cell composition produced as described in Example 2 from two healthy adult donors were incubated with 30 µg/mL of plate-bound CAR-specific anti-idiotypic antibody (see, e.g., WO2018/023100) at 37 °C for a period of seven days. During this seven-day period, engineered CAR T cells were concurrently treated with Compound 17(0.1-1000 nM) or a vehicle control added at day 0.
Stimulated CAR T cells were then re-challenged with CD19-expressing tumor cells or tumor spheroids in the absence of Compound 17, and cytolytic activity and cytokine production were assessed.
To assess cytolytic function, the stimulated CAR-T cell composition was co-cultured with various CD19-expressing lymphoma cells at a 2.5:1 effector:target ratio. The tumor cells were engineered to express NucLight Red (NLR) and tumor cell number was monitored by Incucyte®. […] Duplicate values for cell compositions manufactured from the two different healthy donors are shown.

[3] = tested on: A549.CD19 and Granta-519 tumor spheroids; assay: Cytolytic activity of chronically stimulated, concurrently treated CAR-T cells, 3D spheroids; type: cell-based, human; conditions: concurrent treatment during chronic stimulation, day 9
Procedure: as §1
To further assess activity of chronically stimulated cell, the chronically stimulated CAR-T cells that had been concurrently treated with DGKi were incubated with A549 CD19+ tumor spheroids or Granta-519 tumor spheroids to rechallenge the CAR-T cells at an effector to target ratio of 1:2 for up to 14 days. The tumor spheroids were engineered to express a red fluorescent dye to permit monitoring of tumor cell lysis by microscopy during the assay.
The antigen-specific cytolytic activity of the chronically stimulated CAR-expressing T cells was assessed by monitoring fluorescence (indicative of tumor cell lysis) over time. The tumor volume (normalized to time zero) was measured as the number of red calibrated units (RCU)×μm^2 area. […] Duplicate values for cell compositions manufactured from the two different healthy donors are shown.

K562.CD19 cells = assay: Rescue treatment: cytolytic activity of chronically stimulated CAR-T cells, 2D, K562.CD19; type: cell-based, human; conditions: higher concentrations, 2D co-culture
[4] = tested on: anti-CD19 CAR-T cells with K562.CD19, Granta-519 and Raji cells; assay: Rescue treatment: cytokine production of chronically stimulated CAR-T cells, 2D co-culture; type: cell-based, human; conditions: 48 h
[5] = tested on: Nalm6 leukemia tumor cells; assay: In vivo anti-tumor effect with CAR T cells, Nalm6-rFluc NSG mice (Example 10)
Procedure: The in vivo anti-tumor effects of a continuous Compound 17 dosing regimen in combination with anti-CD19 CAR T cells were assessed in a second CD19-expressing tumor model.

Nalm6-rFluc cells = assay: Tumor cell re-challenge after CAR T cell combination, Nalm6-rFluc (Example 11); type: in vivo, NSG mice
Procedure: Mice in Example 10 who received the CAR T cell combination with continuous Compound 17 dosing regimen were re-challenged by intravenous injection of 5×10^6 Nalm6-rFluc cells on Day 71. For comparison, 5×10^6 Nalm6-rFluc cells were intravenously injected into naive mice that had not previously been injected with or administered Nalm6-rFluc cells, CAR T cells, or Compound 17 (n=4 per group). […] Tumor burden was assessed for 10 days following re-challenge. Survival of treated mice was assessed until 30 days post re-challenge.

[6] = 0.3 mg/kg oral once daily Days 1-30 with 1×10^6 CAR T cells, vs CAR T cells or Compound 17 alone

Compound: CC[C@H]1CN([C@@H](CC)c2ccc(C(F)(F)F)cc2)[C@H](CC)CN1c1nc(=O)n(C)c2ccc(C#N)nc12 [Compound 17, 4-((2S,5R)-2,5-diethyl-4-((S)-1-(4-(trifluoromethyl)phenyl)propyl)piperazin-1-yl)-1-methyl-2-oxo-1,2-dihydropyrido[3,2-d]pyrimidine-6-carbonitrile]
- effect of concurrent treatment on hypofunctionality upon rechallenge with antigen (CAR-expressing T cells): reversed activity and phenotypes associated with T cell hypofunctionality and preserved more effector function
- cytolytic function (specific lysis) [1]: did not affect cytolytic function
- populations of highly activated CAR-T cells (CD69 and PD-1 high) (anti-CD19 CAR-T cells): increased populations of highly activated CAR-T cells
- CAR-T cell cytolytic activity against CD19-expressing lymphoma cells [2]: decreased CAR-T cell cytolytic activity against the CD19-expressing lymphoma cells in a dose-dependent manner
- cytolytic activity of CAR T cells (normalized tumor volume) [3]: modestly reduced the cytolytic activity of the CAR T cells
- cytolytic activity of CAR T cells against K562.CD19 cells (K562.CD19 cells): improved the cytolytic activity of CAR T cells against K562.CD19 and Granta-519 cells
- production of IFNγ, IL-2 and TNFα [4]: dose-dependent increase in production of all three cytokines
- CAR T cell expansion and/or persistence ([5]; 0.3 mg/kg oral once daily Days 1-30 following CAR T cells): increased CAR T cell expansion and/or persistence
- survival [5, 6]: improved survival
- tumor burden [5, 6]: lowered tumor burden
- tumor suppression (tumor control index) ([5]; 0.3 mg/kg with CAR T cells, vs CAR T cells alone): enhanced tumor suppression
- tumor burden vs historical CAR T cell data ([5]; 0.3 mg/kg with CAR T cells, vs separate previous experiments without Compound 17): lower tumor burden than the mice in the separate previous experiments
- single-agent effects ([5]; 0.3 or 0.6 mg/kg oral once daily Days 1-30, without CAR T cells): No single-agent effects of Compound 17 were observed
- survival after re-challenge (Nalm6-rFluc cells; re-challenge Day 71 after CAR T + Compound 17, until 30 days post re-challenge): survival benefit
- tumor growth after re-challenge (Nalm6-rFluc cells; re-challenge Day 71 after CAR T + Compound 17, vs naive mice): delayed tumor growth
